According to PubChem BioAssay (NCI):
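Method: 48-hour compound exposure of cells in 96-well plates, five concentrations, linear interpolation of endpoints. GI50 is the concentration that inhibits growth by half. TGI denotes the concentration required for complete inhibition of growth.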

Tests used:
Experiment in all cases: NCI anticancer screen, dose series, 48 h
K-562 leukemia = tested on: K-562 leukemia
UACC-257 melanoma = tested on: UACC-257 melanoma
SNB-75 CNS = tested on: SNB-75 CNS
SK-MEL-5 melanoma = tested on: SK-MEL-5 melanoma
SNB-19 CNS = tested on: SNB-19 CNS
HCT-116 colon = tested on: HCT-116 colon
SK-OV-3 ovarian = tested on: SK-OV-3 ovarian
HCC-2998 colon = tested on: HCC-2998 colon
A498 renal = tested on: A498 renal
ACHN renal = tested on: ACHN renal
RPMI-8226 leukemia = tested on: RPMI-8226 leukemia
HOP-62 NSCLC = tested on: HOP-62 NSCLC
OVCAR-5 ovarian = tested on: OVCAR-5 ovarian
EKVX NSCLC = tested on: EKVX NSCLC
MDA-MB-435 = tested on: MDA-MB-435
NCI-H23 lung = tested on: NCI-H23 lung
MCF7 breast = tested on: MCF7 breast
NCI-H226 lung = tested on: NCI-H226 lung
HS 578T breast = tested on: HS 578T breast
UO-31 renal = tested on: UO-31 renal
OVCAR-8 ovarian = tested on: OVCAR-8 ovarian
SN12C renal = tested on: SN12C renal
SF-295 CNS = tested on: SF-295 CNS
SK-MEL-28 melanoma = tested on: SK-MEL-28 melanoma
SW-620 colon = tested on: SW-620 colon
MALME-3M melanoma = tested on: MALME-3M melanoma
SK-MEL-2 melanoma = tested on: SK-MEL-2 melanoma
OVCAR-3 ovarian = tested on: OVCAR-3 ovarian
IGROV1 ovarian = tested on: IGROV1 ovarian
UACC-62 melanoma = tested on: UACC-62 melanoma
NCI-H460 lung = tested on: NCI-H460 lung
NCI-H522 lung = tested on: NCI-H522 lung
T-47D breast = tested on: T-47D breast
HCT-15 colon = tested on: HCT-15 colon
PC-3 prostate = tested on: PC-3 prostate
COLO 205 colon = tested on: COLO 205 colon
LOX IMVI melanoma = tested on: LOX IMVI melanoma
MOLT-4 leukemia = tested on: MOLT-4 leukemia
KM12 colon = tested on: KM12 colon
HL-60(TB) leukemia = tested on: HL-60(TB) leukemia
HOP-92 NSCLC = tested on: HOP-92 NSCLC
M14 melanoma = tested on: M14 melanoma
RXF 393 renal = tested on: RXF 393 renal
SF-268 CNS = tested on: SF-268 CNS
OVCAR-4 ovarian = tested on: OVCAR-4 ovarian
DU-145 prostate = tested on: DU-145 prostate
U251 CNS = tested on: U251 CNS
CAKI-1 renal = tested on: CAKI-1 renal
HT29 colon = tested on: HT29 colon
SR leukemia = tested on: SR leukemia
A549 NSCLC = tested on: A549 NSCLC
MDA-MB-231 breast = tested on: MDA-MB-231 breast
TK-10 renal = tested on: TK-10 renal
CCRF-CEM leukemia = tested on: CCRF-CEM leukemia
BT-549 breast = tested on: BT-549 breast
SF-539 CNS = tested on: SF-539 CNS
NCI/ADR-RES ovarian = tested on: NCI/ADR-RES ovarian
786-0 renal = tested on: 786-0 renal

Structure (SMILES): Nc1nc(-c2ccc3c(c2)/C(=C\c2cc(Br)c(O)c(Br)c2)C(=O)N3)cs1
- GI50 (K-562 leukemia): 10.6 µM
- TGI (K-562 leukemia): > 25 µM
- GI50 (UACC-257 melanoma): 5.57 µM
- TGI (UACC-257 melanoma): 14.4 µM
- GI50 (SNB-75 CNS): 11.8 µM
- TGI (SNB-75 CNS): > 25 µM
- GI50 (SK-MEL-5 melanoma): 5.4 µM
- TGI (SK-MEL-5 melanoma): 12.1 µM
- GI50 (SNB-19 CNS): > 25 µM
- TGI (SNB-19 CNS): > 25 µM
- GI50 (HCT-116 colon): 12.9 µM
- TGI (HCT-116 colon): > 25 µM
- GI50 (SK-OV-3 ovarian): 17.9 µM
- TGI (SK-OV-3 ovarian): > 25 µM
- GI50 (HCC-2998 colon): 17.8 µM
- TGI (HCC-2998 colon): > 25 µM
- GI50 (A498 renal): 5.57 µM
- TGI (A498 renal): 16.5 µM
- GI50 (ACHN renal): > 23.9 µM
- TGI (ACHN renal): > 25 µM
- GI50 (RPMI-8226 leukemia): 14.9 µM
- TGI (RPMI-8226 leukemia): > 25 µM
- GI50 (HOP-62 NSCLC): > 17 µM
- TGI (HOP-62 NSCLC): > 25 µM
- GI50 (OVCAR-5 ovarian): > 25 µM
- TGI (OVCAR-5 ovarian): > 25 µM
- GI50 (EKVX NSCLC): > 25 µM
- TGI (EKVX NSCLC): > 25 µM
- GI50 (MDA-MB-435): 4.68 µM
- TGI (MDA-MB-435): 12 µM
- GI50 (NCI-H23 lung): 14.3 µM
- TGI (NCI-H23 lung): > 25 µM
- GI50 (MCF7 breast): 12.8 µM
- TGI (MCF7 breast): > 25 µM
- GI50 (NCI-H226 lung): > 25 µM
- TGI (NCI-H226 lung): > 25 µM
- GI50 (HS 578T breast): 9.98 µM
- TGI (HS 578T breast): > 25 µM
- GI50 (UO-31 renal): 19.1 µM
- TGI (UO-31 renal): > 25 µM
- GI50 (OVCAR-8 ovarian): > 25 µM
- TGI (OVCAR-8 ovarian): > 25 µM
- GI50 (SN12C renal): > 25 µM
- TGI (SN12C renal): > 25 µM
- GI50 (SF-295 CNS): 10.1 µM
- TGI (SF-295 CNS): > 25 µM
- GI50 (SK-MEL-28 melanoma): 7.99 µM
- TGI (SK-MEL-28 melanoma): > 25 µM
- GI50 (SW-620 colon): 10.6 µM
- TGI (SW-620 colon): > 25 µM
- GI50 (MALME-3M melanoma): 5.95 µM
- TGI (MALME-3M melanoma): 17.4 µM
- GI50 (SK-MEL-2 melanoma): 6.96 µM
- TGI (SK-MEL-2 melanoma): > 17.6 µM
- GI50 (OVCAR-3 ovarian): 8.14 µM
- TGI (OVCAR-3 ovarian): 20.4 µM
- GI50 (IGROV1 ovarian): > 25 µM
- TGI (IGROV1 ovarian): > 25 µM
- GI50 (UACC-62 melanoma): 6.89 µM
- TGI (UACC-62 melanoma): 23.7 µM
- GI50 (NCI-H460 lung): 16.4 µM
- TGI (NCI-H460 lung): > 25 µM
- GI50 (NCI-H522 lung): 8.12 µM
- TGI (NCI-H522 lung): 19.4 µM
- GI50 (T-47D breast): 15.1 µM
- TGI (T-47D breast): > 25 µM
- GI50 (HCT-15 colon): > 20.2 µM
- TGI (HCT-15 colon): > 25 µM
- GI50 (PC-3 prostate): 13.6 µM
- TGI (PC-3 prostate): > 25 µM
- GI50 (COLO 205 colon): 15.1 µM
- TGI (COLO 205 colon): > 25 µM
- GI50 (LOX IMVI melanoma): 7.84 µM
- TGI (LOX IMVI melanoma): > 25 µM
- GI50 (MOLT-4 leukemia): 16.2 µM
- TGI (MOLT-4 leukemia): > 25 µM
- GI50 (KM12 colon): 10.4 µM
- TGI (KM12 colon): > 25 µM
- GI50 (HL-60(TB) leukemia): 8.91 µM
- TGI (HL-60(TB) leukemia): > 22.6 µM
- GI50 (HOP-92 NSCLC): 9.19 µM
- TGI (HOP-92 NSCLC): > 25 µM
- GI50 (M14 melanoma): 5.02 µM
- TGI (M14 melanoma): 11.8 µM
- GI50 (RXF 393 renal): 12.5 µM
- TGI (RXF 393 renal): > 25 µM
- GI50 (SF-268 CNS): 16.3 µM
- TGI (SF-268 CNS): > 25 µM
- GI50 (OVCAR-4 ovarian): > 25 µM
- TGI (OVCAR-4 ovarian): > 25 µM
- GI50 (DU-145 prostate): 18.6 µM
- TGI (DU-145 prostate): > 25 µM
- GI50 (U251 CNS): 12.8 µM
- TGI (U251 CNS): > 25 µM
- GI50 (CAKI-1 renal): > 25 µM
- TGI (CAKI-1 renal): > 25 µM
- GI50 (HT29 colon): 11.2 µM
- TGI (HT29 colon): > 25 µM
- GI50 (SR leukemia): 11.3 µM
- TGI (SR leukemia): > 25 µM
- GI50 (A549 NSCLC): > 25 µM
- TGI (A549 NSCLC): > 25 µM
- GI50 (MDA-MB-231 breast): 17.3 µM
- TGI (MDA-MB-231 breast): > 25 µM
- GI50 (TK-10 renal): > 25 µM
- TGI (TK-10 renal): > 25 µM
- GI50 (CCRF-CEM leukemia): 9.36 µM
- TGI (CCRF-CEM leukemia): > 25 µM
- GI50 (BT-549 breast): 11.4 µM
- TGI (BT-549 breast): > 23.8 µM
- GI50 (SF-539 CNS): 11.9 µM
- TGI (SF-539 CNS): > 25 µM
- GI50 (NCI/ADR-RES ovarian): > 23.4 µM
- TGI (NCI/ADR-RES ovarian): > 25 µM
- GI50 (786-0 renal): 14.1 µM
- TGI (786-0 renal): > 25 µM
